Values quoted from earlier work, collected in patent US7601870B2, “Substituted aniline derivatives” (priority 2004, dated 2009).

What was measured:
[1] = test system: animal models of ethanol withdrawal syndrome; details: in vivo
[2] = test system: amygdala kindling model of complex partial seizures; details: in vivo
[3] = test system: kainic acid-induced status epilepticus; details: rat
[4] = test system: animal models of neuropathic pain; details: in vivo
hippocampal kindling = details: rat
[5] = test system: K(+) current in neuronal cells
[6] = test system: seizures in epileptic patients; details: clinical trials
[7] = test system: electrically induced seizures, seizures induced chemically by pentylenetetrazole, picrotoxin and NMDA, DBA/2 mouse; details: oral and intraperitoneal administration in rats and mice
[8] = test system: animal models of anxiety-like behaviour; details: in vivo

| SMILES | effect in ethanol withdrawal syndrome models [1] | activity in amygdala kindling model [2] | limbic neurodegeneration and markers of apoptosis [3] | effect in neuropathic pain models [4] | progression of hippocampal kindling (hippocampal kindling) | activation of K(+) current [5] | incidence of seizures [6] | anticonvulsant activity [7] | activity in anxiety-like behaviour models [8] |
| --- | --- | --- | --- | --- | --- | --- | --- | --- | --- |
| NCC1(CC(=O)O)CCCCC1 [gabapentin] | very effective |  |  |  |  |  |  |  |  |
| CCOC(=O)Nc1ccc(NCc2ccc(F)cc2)cc1N [Retigabine, N-(2-amino-4-(4-fluorobenzylamino)-phenyl) carbamic acid ethyl ester] |  | active | prevent limbic neurodegeneration and the expression of markers of apoptosis | beneficial | delay the progression of hippocampal kindling | activate a K(+) current | effectiveness in reducing the incidence of seizures | active | active |
